Measurements: patent US20260265694A1, “USE OF A VITISIN COMPOUND FOR THE PRODUCTION OF HEMATOPOIETIC CELLS” (ETABLISSEMENT FRANCAIS DU SANG, priority 2022, published 2026)

Columns and labels:
Assay type in all cases: cell-based, human
[1] = test system: BFU-E and CFU-E erythrocyte progenitors from placental blood CD34+ cells; assay: CFC clonogenic assay of BFU-E and CFU-E during phase 1 of ERYTHRO 2; details: 10 μM
Method: • CTRL condition: cells are cultured for 7 days in the absence of vitisin B. • TEST condition: cells are cultured for 7 days in the presence of vitisin B at 10 μM.
To this end, the CFC (Colony Forming Cells) test is used. Committed progenitors are capable of generating colonies after culture in a semisolid medium composed of methylcellulose and supplemented with cytokines. Thus, committed progenitors (here BFU-Es and CFU-Es) produced during erythrocyte cultures can be counted.
This analysis of BFU-E and CFU-E production was performed only during phase 1 of PROTOCOL 2. Cells grown and harvested on days 4, 8 and 11 of phase 1 were seeded in a ready-to-use cytokine-supplemented methylcellulose H4034 kit (Stem Cell Technology, Meylan, France) at concentrations of 150 cells/[…] H4034 for day 4 and 300 cells/250

[2] = test system: peripheral blood CD34+ cells; assay: ERYTHRO 1 PROTOCOL: simplified two-phase erythrocyte differentiation; details: versus CTRL, FIG. 3
Method: b. ERYTHRO 1 PROTOCOL: Simplified Ex Vivo Erythrocyte Differentiation Protocol (in Two Phases) This protocol was applied to CD34^+ cells from peripheral and placental blood, pre-stimulated SP cells, CMP cells and MEP cells. For this culture, the cell populations of interest are isolated as indicated previously and cultured in IMDM culture medium supplemented as follows: • 15% BIT 9500 (Stem Cell Technologies). […] The various cell populations were seeded in 24-well plates at 200 000 cells/mL for CD34^+, CMPs and MEPs. All of the cells recovered after the “Amplification/pre-stimulation” step for SP cells (i.e. 5000-50 000 cells) were cultured in 24-well plates. This culture includes two phases: • Phase 1: D0 to D6, EPO-free culture • Phase 2: from D6, addition of 2 IU/ML EPO and extension of culturing up to D21 minimum and D28 maximum.
In order to test the effect of vitisin B in this context, the culturing is performed in the absence and presence of vitisin B: • CTRL condition: Absence of vitisin B throughout the entire protocol. • Test condition: Presence of vitisin B at 5, 10, 15, 20 or 30 μM for the entire duration of the protocol (phase 1+phase 2). During the culture protocol, the differentiation product is analyzed by quantifying proliferation (counting) and analyzing erythrocyte differentiation markers by means of flow cytometry, using the markers CD71 and CD235a. c. ERYTHRO 2 PROTOCOL: Three-Phase Erythrocyte Differentiation Protocol
During and at the end of the various erythrocyte differentiation protocols, cell proliferation and cell differentiation are analyzed. Cell proliferation is evaluated by counting of cells on Malassez slides, with Trypan blue exclusion of dead cells. The different populations and culture conditions are also analyzed by flow cytometry, so as to observe the appearance of erythrocyte differentiation markers and thus cell differentiation kinetics. […] After resuspension of the cell pellets in PBS, the cells are analyzed by flow cytometry (FACSCantoll, Becton Dickinson, San Jose, CA). […]

[3] = test system: CD34+ cells from peripheral blood; assay: AMPLIFICATION PROTOCOL: ex vivo amplification of hematopoietic progenitors
Method: This is a strategy for the amplification of hematopoietic progenitors. The culture is formed as follows: CD34^+ cells from peripheral blood are isolated (as indicated in section II.A.1), and cultured for 12 days in Stem Span II medium (Stem Cell Technologies) supplemented with cytokines: SCF 100 ng/mL, FLT3-L 100 ng/mL, TPO 20 ng/mL, G-CSF 10 ng/mL. The amplification product is analyzed by quantification of proliferation (count on Malassez slides) and phenotypic analysis of CD34^+ cell subpopulations by flow cytometry. […] Vitisin B is also compared with the following stilbene-type molecules at 10 μM concentration: Resveratrol, Pallidol, E-Viniferin, Ampelopsin, Oxyresveratrol, Picateatannol, Gnetol
At the end of the hematopoietic cell amplification protocol, an analysis of cell proliferation and amplification of immature and committed cell populations is performed.
Cell proliferation is evaluated by counting cells on Malassez slides with Trypan blue exclusion of dead cells.
The amplification of cell populations is based on a phenotypic analysis relating to the evolution of the expression of membrane markers CD34 and CD133 by flow cytometry. These markers make it possible to define more or less immature cell populations organized hierarchically as follows: CD34^+CD133^+->CD34^+CD133^neg->CD34^negCD133^neg. To this end, cells are incubated with anti-CD34 (1:100,000) (BD Pharmingen) and anti-CD133 (1:100,000) (BD Pharmingen) antibodies for 15 minutes. The cells are then rinsed with a PBS solution and centrifuged (430×g, 10 min, 4° C.). After resuspension of the cell pellets in PBS, the cells are analyzed by flow cytometry (FACSCantoll, Becton Dickinson, San Jose, CA).
The proportions of each phenotypic population thus observed and the total amount of cells make it possible to calculate the rate of amplification of the most immature cells (CD34^+CD133+) compared with the amplification of more committed progenitors (CD34^+CD133^neg and CD34^negCD133^neg).

Oc1ccc(C2Oc3ccc(/C=C/c4cc(O)cc5c4[C@H](c4cc(O)cc(O)c4)[C@@H](c4ccc(O)cc4)O5)cc3C2c2cc(O)cc3c2C(c2cc(O)cc(O)c2)C(c2ccc(O)cc2)O3)cc1 (stereo in doubt) [vitisin B, 5-[(2R,2'S,3R,3'S)-5-[(1E)-2-[(2S,3S)-3-(3,5-Dihydroxyphenyl)-2,3-dihydro-6-hydroxy-2-(4-hydroxyphenyl)-4-benzofuranyl]ethenyl]-2,2′,3,3′-tetrahydro-6′-hydroxy-2,2′-bis(4-hydroxyphenyl)[3,4′-bibenzofuran]-3′-yl]-1,3-benzenediol]
appearance of primitive erythrocyte progenitors (BFU-Es) ([1]; clonogenic assay at D4, D8, D11, FIG. 7A): accelerated the appearance | appearance of more differentiated progenitors (CFU-Es) ([1]; clonogenic assay at D4, D8, D11, FIG. 7B): accelerated the appearance | CD71 expression ([2]; flow cytometry): more rapid decline | acquisition of CD235a (GPA) ([2]; flow cytometry): earlier acquisition | differentiation of CD34+ cells into erythrocyte precursors ([2]; vitisin B 5-30 μM for the entire protocol): faster and greater differentiation | amplification of the total amount of progenitors of the CD34+ phenotype ([3]; 10 μM, 12-day culture, FIG. 1): up to 250% | amplification of the CD34+CD133neg subpopulation (erythrocyte potential) ([3]; 10 μM, FIG. 1): induces amplification | effect on the proportion and total amount of CD34+CD133neg cells ([3]; 10 μM, FIG. 2): convincing effect | effect of increasing the dose on total CD34+ and CD34+CD133neg populations ([3]; 50 μM versus 10 μM): no additional effect
